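Briefly, cells in 96-well plates were exposed to five compound concentrations for 48 h, and endpoints were estimated by linear interpolation. TGI: concentration producing complete growth inhibition.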 Where a SMILES comes first, the peptide text is derived from it. The star is where a group is joined. Fmoc = O=C(OCC1c2ccccc2-c2ccccc21)*; Boc = CC(C)(C)OC(=O)*
Legend:
Assay in all cases: NCI-60 cell line screen, 48 h
HL-60(TB) leukemia = tested on: HL-60(TB) leukemia
SF-295 CNS = tested on: SF-295 CNS
SF-268 CNS = tested on: SF-268 CNS
MDA-MB-435 = tested on: MDA-MB-435
UACC-257 melanoma = tested on: UACC-257 melanoma
786-0 renal = tested on: 786-0 renal
U251 CNS = tested on: U251 CNS
M14 melanoma = tested on: M14 melanoma
HCT-116 colon = tested on: HCT-116 colon
NCI-H23 lung = tested on: NCI-H23 lung
IGROV1 ovarian = tested on: IGROV1 ovarian
NCI-H522 lung = tested on: NCI-H522 lung
NCI-H226 lung = tested on: NCI-H226 lung
CAKI-1 renal = tested on: CAKI-1 renal

Row | Compound | TGI (HL-60(TB) leukemia) | TGI (SF-295 CNS) | TGI (SF-268 CNS) | TGI (MDA-MB-435) | TGI (UACC-257 melanoma) | TGI (786-0 renal) | TGI (U251 CNS) | TGI (M14 melanoma) | TGI (HCT-116 colon) | TGI (NCI-H23 lung) | TGI (IGROV1 ovarian) | TGI (NCI-H522 lung) | TGI (NCI-H226 lung) | TGI (CAKI-1 renal)
1 | C1CC[C@H]2SSC3CCCC[C@H]3SSC2C1 (some centres undefined) | > 100 µM | > 100 µM | > 100 µM | > 100 µM | > 100 µM | > 100 µM | > 100 µM | > 100 µM | > 100 µM | > 100 µM | > 100 µM | > 100 µM |  | 
2 | c1ccc2c(c1)CCc1[nH]c3c(c1-2)-c1ccccc1CC3 | > 100 µM | > 100 µM | > 100 µM | > 100 µM | > 100 µM | > 100 µM | > 100 µM | > 100 µM | > 100 µM | > 100 µM | > 100 µM | > 100 µM | > 100 µM | > 100 µM
3 | O=c1cn[nH]c(=S)n1/N=C/c1c[nH]c2ccccc12 | 49.5 µM | > 100 µM | > 100 µM | > 100 µM | > 100 µM | > 100 µM | > 100 µM | > 100 µM | > 100 µM |  | 31.8 µM | > 100 µM |  | > 100 µM
4 | CN1CN(c2ccccc2)C2(CCN(CCC3COc4ccccc4O3)CC2)C1=O (centres undefined) | 45.8 µM | 37.2 µM | > 100 µM | 89.4 µM | 31 µM | > 100 µM | 66.5 µM | 42 µM | 23.2 µM | > 100 µM | 75.2 µM | 33.4 µM | 85.1 µM | 77.5 µM
5 | CCOP(=O)(OCC)/C(C#N)=C/c1cnc[nH]1 | > 100 µM | > 100 µM | > 100 µM | > 100 µM | > 100 µM | > 100 µM | > 100 µM | > 100 µM | > 100 µM | > 100 µM | > 100 µM | > 100 µM | > 100 µM | > 100 µM
6 | CC(C)(C)OC(=O)NCCCCC(NC(=O)C(Cc1c[nH]c2ccccc12)NC(=O)OCC1c2ccccc2-c2ccccc21)C(=O)N1CCCC1C(=O)NCC(N)=O (centres undefined) (Fmoc-WK(Boc)PG-NH2; configuration not given here) | > 100 µM | > 100 µM | > 100 µM | > 100 µM | > 100 µM | > 100 µM | > 100 µM | > 100 µM | > 100 µM | > 100 µM | > 100 µM | > 100 µM | > 100 µM | > 100 µM
7 | CC(C)(C)c1cc2c(O)c(c1)Cc1cc(C(C)(C)C)cc(c1O)Cc1cc(C(C)(C)C)cc(c1O)Cc1cc(C(C)(C)C)cc(c1O)Cc1cc(C(C)(C)C)cc(c1O)Cc1cc(C(C)(C)C)cc(c1O)Cc1cc(C(C)(C)C)cc(c1O)Cc1cc(C(C)(C)C)cc(c1O)C2 | > 50 µM | > 50 µM | > 50 µM | > 50 µM | > 50 µM | > 50 µM | > 50 µM | > 50 µM | > 50 µM | > 50 µM | > 50 µM | > 50 µM | > 50 µM | > 50 µM
8 | CCOC(=O)C(=O)/C(=C/N1C(=O)CC(=O)NC1=S)C(=O)OCC | > 100 µM | > 100 µM | > 100 µM | > 100 µM | > 100 µM | > 100 µM | > 100 µM | > 100 µM | > 100 µM | > 100 µM | > 100 µM | > 100 µM | > 100 µM | > 100 µM
9 | Fc1ccc(-c2sc(-c3cccs3)cc2Cc2cccs2)cc1 | > 100 µM | > 100 µM | > 100 µM | > 100 µM | > 100 µM | > 100 µM | > 100 µM | > 100 µM | > 100 µM | > 100 µM | > 100 µM | > 100 µM | > 100 µM | > 100 µM
10 | COc1cccc(N(CN2C(=O)CCC2C(=O)O)C(C)=O)c1 (centres undefined) | > 100 µM | > 100 µM | > 100 µM | > 100 µM | > 100 µM | > 100 µM | > 100 µM | > 100 µM | > 100 µM | > 100 µM | > 100 µM | > 100 µM | > 100 µM | > 100 µM
11 | CN(c1cn(C2CC[C@@H](CO)O2)c(=O)[nH]c1=O)C1CCCCC1 (some centres undefined) | > 100 µM | > 100 µM | > 100 µM | > 100 µM |  | > 100 µM | > 100 µM | > 100 µM | > 100 µM | > 100 µM | > 100 µM | > 100 µM | > 100 µM | 
12 | Cc1ccc(S(=O)c2sccc2C=O)cc1 (centres undefined) | 48.2 µM | 71.3 µM | 82.4 µM | 62.6 µM | > 100 µM | > 100 µM | 34.6 µM | 58.1 µM | 31 µM | > 100 µM | 74.3 µM | > 100 µM |  | > 100 µM
13 | O=C(CNC(c1ccccc1)(c1ccccc1)c1ccccc1)NC1CCCCC1NC(=O)CNC(c1ccccc1)(c1ccccc1)c1ccccc1 (centres undefined) | > 100 µM | > 100 µM | > 100 µM | > 100 µM | > 100 µM | > 100 µM | > 100 µM |  | > 100 µM | > 100 µM | > 100 µM | > 100 µM |  | > 100 µM
14 | Cc1nnc(N)nc1/C=C/c1c(O)ccc2ccccc12 | 71.4 µM | 56.9 µM | 96.9 µM | 79.5 µM | > 100 µM | > 100 µM | > 100 µM | 44.1 µM | > 100 µM | > 100 µM | 32.2 µM |  | 44.5 µM | > 100 µM
15 | CC(=O)OC12c3ccccc3-c3ccccc3C1C1C(=O)OC(=O)C12 (centres undefined) | > 10 µM | > 10 µM | > 10 µM | > 10 µM | > 10 µM | > 10 µM | > 10 µM | > 10 µM |  | > 10 µM | > 10 µM | > 10 µM | > 10 µM | > 10 µM
16 | O=C(NCCNCCCNC(=O)c1cc(-c2ccccc2)nc2ccccc12)c1cccc(OCc2ccccc2)c1OCc1ccccc1 | 3.19 µM | 3.03 µM |  | 3.04 µM | 3.28 µM | 3.09 µM |  | 3.1 µM | 3.13 µM | 3.35 µM | 3.44 µM | 3.12 µM | 3.35 µM | 3.01 µM
17 | COC(=O)C1=C(C(=O)OC)SC2(S1)C(C(=O)OC)=C(C(=O)OC)Sc1c2ssc1=Nc1ccc(Cl)cc1 | 6.74 µM | 5.34 µM |  | 2.14 µM | 2.3 µM | 1.69 µM | 2.64 µM | 2.79 µM | 1.15 µM | 4.13 µM | 2.48 µM |  | 3.38 µM | 2.21 µM
18 | O=C(O)CCCc1ccc2ccccc2c1 | > 100 µM | > 100 µM | > 100 µM | > 100 µM | > 100 µM | > 100 µM | > 100 µM | > 100 µM | > 100 µM | > 100 µM | > 100 µM | > 100 µM |  | > 100 µM
19 | COC(=O)C1(C(=O)OC)N=C(C)OC1/C=C/c1ccccc1 (centres undefined) | > 100 µM | > 100 µM |  | > 100 µM | > 100 µM | > 100 µM | > 100 µM | > 100 µM | > 100 µM | > 100 µM | > 100 µM |  | > 100 µM | > 100 µM
20 | O=C1CSC(c2c[nH]c3ccccc23)N1c1ccccc1[N+](=O)[O-] (centres undefined) | > 100 µM | > 100 µM | > 100 µM | > 100 µM | > 100 µM | > 100 µM | > 100 µM | > 100 µM | > 100 µM | > 100 µM | > 100 µM | > 100 µM |  | 
21 | CC1C(OC2O[C@@H]3O[C@@]4(C)CC[C@H]5[C@H](C)CC[C@@H](C2C)[C@@]35O4)O[C@@H]2O[C@@]3(C)CC[C@H]4[C@H](C)CC[C@@H]1[C@@]24O3 (some centres undefined) | > 50 µM | > 50 µM | > 50 µM | > 50 µM | > 50 µM | > 50 µM | > 50 µM | > 50 µM | > 50 µM | > 50 µM |  | > 50 µM | > 50 µM | > 50 µM
22 | O=C(O)CC(Sc1ccccc1)c1ccccc1 (centres undefined) | > 100 µM | > 100 µM | > 100 µM | > 100 µM |  | > 100 µM | > 100 µM | > 100 µM | > 100 µM | > 100 µM | > 100 µM | > 100 µM | > 100 µM | > 100 µM
23 | Cn1c(=O)sc2cc(C(=S)N3CCC(Cc4ccccc4)CC3)ccc21 | > 100 µM | > 100 µM | > 100 µM | > 100 µM | > 100 µM | > 100 µM | 78.1 µM | > 100 µM | > 100 µM | > 100 µM | > 100 µM |  | > 100 µM | > 100 µM
24 | COc1ccc(C(=O)/C=C/c2ccc(OCCSCCCCCCCCCCSCCOc3ccc(/C=C/C(=O)c4ccc(OC)c(OC)c4)cc3)cc2)cc1OC | > 100 µM | > 100 µM | > 100 µM | > 100 µM | > 100 µM | > 100 µM |  | > 100 µM | > 100 µM | > 100 µM | > 100 µM | > 100 µM |  | > 100 µM
25 | O=C(CCCl)NNC1=NCCCN1 | > 100 µM | > 100 µM | > 100 µM | > 100 µM | > 100 µM | > 100 µM | > 100 µM | > 100 µM | > 100 µM | > 100 µM | > 100 µM | > 100 µM | > 100 µM | 

Source: PubChem BioAssay (NCI)
